One series concerns the target Cys-34 residue of HSA (Homo sapiens, UniProt P02768). As for the experimental part: UV-visible (UV-Vis) spectrophotometry was monitored on an Agilent Cary 8454 diode array spectrophotometer in the wavelength range between 190 and 1100 nm.
Interaction of complex 12 at the Cys-34 residue of HSA was investigated spectrophotometrically via the dithiodipyridine (DTDP) method described previously (Pichler et al., 2013). […] A first series of UV-Vis spectra (a) were recorded before addition of 110 μM DTDP and a second series of UV-Vis spectra (b) were recorded after addition of 110 μM DTDP and after another 40 min waiting. […] Blank experiment with compound 13 was carried out as well as a control experiment. The effect of protein unfolding on the thiol binding of complex 12 was studied by the addition of 0.5% (m/m) SDS to the protein prior to its reaction with the complex. This experiment allows to determine the amount of free Cys-34 residue of HSA as a function of the added equivalent of the complexes.

The conditions of series [1]: cited from earlier work.

These results are taken from US12636366B2, “Ruthenium (II) complexes and conjugates thereof for use as photosensitizer agent in photodynamic therapy” (Paris Sciences et Lettres, priority 2019, dated 2026).

Sequence of Cys-34 residue of HSA (P02768 25-609): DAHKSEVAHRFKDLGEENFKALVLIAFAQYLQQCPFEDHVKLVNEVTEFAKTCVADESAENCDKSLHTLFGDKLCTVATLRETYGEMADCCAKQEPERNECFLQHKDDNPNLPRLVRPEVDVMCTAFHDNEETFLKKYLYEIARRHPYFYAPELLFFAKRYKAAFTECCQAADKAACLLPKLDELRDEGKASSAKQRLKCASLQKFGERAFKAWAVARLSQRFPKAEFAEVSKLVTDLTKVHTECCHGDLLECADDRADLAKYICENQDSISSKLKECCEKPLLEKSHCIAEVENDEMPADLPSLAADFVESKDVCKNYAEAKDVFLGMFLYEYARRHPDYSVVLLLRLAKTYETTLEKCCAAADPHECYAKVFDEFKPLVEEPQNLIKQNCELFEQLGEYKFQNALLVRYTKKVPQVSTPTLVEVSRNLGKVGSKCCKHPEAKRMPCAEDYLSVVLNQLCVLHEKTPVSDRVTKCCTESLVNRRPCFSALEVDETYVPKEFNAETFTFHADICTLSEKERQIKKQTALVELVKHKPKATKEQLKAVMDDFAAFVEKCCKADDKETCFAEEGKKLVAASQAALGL

Take `Cc1ccnc(-c2cc(C)ccn2)c1.[Cl-].[Cl-].[Ru+2].c1ccc(-c2ccnc3c2ccc2c(-c4ccccc4)ccnc23)cc1.c1ccc(-c2ccnc3c2ccc2c(-c4ccccc4)ccnc23)cc1` [Compound 13, (4,4′-Dimethyl-2,2′-bipyridine)bis(4,7-diphenyl-1,10-phenanthroline)ruthenium(II) dichlorine]: on Cys-34 residue of HSA (133 μM HSA, 0-120 μM complex, 3 h or 30 min, pH=7.00 (PBS)), the “Interaction with Cys-34 thiol group (free thiol content) of native HSA” value is listed as “affects barely the quantity of free thiol groups”.

As to `O=C1C=Cc2cccc3cccc1c23` [phenalenone], the “Φ(1O2) of reference in CH3CN” value in series [1] (solution in CH3CN) is recorded as 0.95. In the case of “[Ru(bphen)2(Me-maleimidemethyl)](Cl)2 [Compound 12]”, on Cys-34 residue of HSA (0.5% SDS as denaturing agent, 0.5 h incubation), the “Interaction with Cys-34 thiol group of unfolded HSA” value is on record as “nearly quantitative interaction”. For the same compound, the “Effect of incubation time on Cys-34 interaction” value on Cys-34 residue of HSA (3 h versus 30 min incubation with HSA) is recorded as “did not result in remarkable differences”. Take `[Cl-].[Cl-].[Ru+2].c1ccc(-c2ccccn2)nc1.c1ccc(-c2ccccn2)nc1.c1ccc(-c2ccccn2)nc1` [[Ru(bipy)3]Cl2]: the “Φ(1O2) of reference in D2O / water” value in series [1] (solution in D2O / water) is 0.22.
